Measured values: EP4663198A1, “COMPOSITION CONTAINING CYCLIC PEPTIDE COMPOUND AND SURFACTANT” (CHUGAI SEIYAKU KABUSHIKI KAISHA, priority 2023, dated 2024)

Conditions: Caco-2, pH 6.5
Protocol: Caco-2 cells were cultured on 96-well Transwell for 3 weeks. […] From the permeation amount, the permeability coefficient (Caco-2 Papp (cm/sec)) was calculated.
From the measured permeation amount, the permeability coefficient was calculated.

`CCO[C@@H]1C[C@H]2C(=O)NC3(CCCC3)C(=O)N[C@@H](C3CCCC3)C(=O)N(C)[C@H](C(=O)N(C)C)CC(=O)N(C)[C@@H](CC(C)C)C(=O)N[C@@H]([C@@H](C)CC)C(=O)N(C)CC(=O)N(C)[C@H]3C/C=C\CCN(C3=O)[C@@H](Cc3ccc(C(F)(F)F)cc3)C(=O)N(C)CC(=O)N[C@@H](CCc3cc(F)c(C(F)(F)F)c(F)c3)C(=O)N2C1` [CP01, (2S,8S,12R,14S,20S,23S,27S,30S,36S,38Z)-20-cyclopentyl-8-[2-[3,5-difluoro-4-(trifluoromethyl)phenyl]ethyl]-12-ethoxy-27-isobutyl-N,N,4,22,26,32,35-heptamethyl-30-[(1S)-1-methylpropyl]-3,6,9,15,18,21,25,28,31,34,42-undecaoxo-2-[(4-(trifluoromethyl)phenyl]methyl]spiro[1,4,7,10,16,19,22,26,29,32,35-undecazatricyclo[34.5.1.0^10,14]dotetraconta-38-en-17,1'-cyclopentane]-23-carboxamide] showed a Papp A→B of 0.0525 ×10⁻⁶ cm/s.
